Experiments:
Format in all cases: in vitro ADME
Conditions in all cases: procedure of Example 14
CYP2C9 = molecular target: T1, CYP2C9 (Homo sapiens, UniProt P11712); test: Cytochrome P450 inhibition, pooled human hepatic microsome
T1 construct: 0.2 mg protein/mL pooled human hepatic microsome enzyme; from tissue; host or cells: pooled human hepatic microsomes

CYP1A2 = molecular target: T2, CYP1A2 (Homo sapiens, UniProt P05177); test: as above
T2 sequence (P05177 1-516): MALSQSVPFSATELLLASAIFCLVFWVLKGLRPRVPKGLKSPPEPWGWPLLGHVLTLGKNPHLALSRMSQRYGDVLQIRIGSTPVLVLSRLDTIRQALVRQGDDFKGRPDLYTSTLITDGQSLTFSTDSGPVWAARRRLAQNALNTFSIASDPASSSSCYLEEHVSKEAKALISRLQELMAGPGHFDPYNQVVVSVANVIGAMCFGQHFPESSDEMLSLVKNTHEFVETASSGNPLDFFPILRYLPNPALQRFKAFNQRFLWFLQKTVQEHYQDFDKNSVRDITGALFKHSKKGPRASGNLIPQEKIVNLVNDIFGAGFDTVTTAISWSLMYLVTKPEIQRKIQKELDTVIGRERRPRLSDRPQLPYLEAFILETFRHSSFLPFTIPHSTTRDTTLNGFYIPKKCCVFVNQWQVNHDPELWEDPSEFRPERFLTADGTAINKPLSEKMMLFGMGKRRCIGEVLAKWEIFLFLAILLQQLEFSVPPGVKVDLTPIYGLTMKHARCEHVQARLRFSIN

CYP3A4 = molecular target: T3, CYP3A4 (Homo sapiens, UniProt P08684); test: as above
T3 construct: 0.2 mg protein/mL pooled human hepatic microsome enzyme; from tissue; host or cells: pooled human hepatic microsomes

CYP2D6 = molecular target: T4, CYP2D6 (Homo sapiens, UniProt P10635); test: Cytochrome P450 inhibition, pooled human hepatic microsome (O-demethylation of dextromethorphan)
T4 construct: 0.2 mg protein/mL pooled human hepatic microsome enzyme; from tissue; host or cells: pooled human hepatic microsomes
T4 sequence (P10635 whole entry): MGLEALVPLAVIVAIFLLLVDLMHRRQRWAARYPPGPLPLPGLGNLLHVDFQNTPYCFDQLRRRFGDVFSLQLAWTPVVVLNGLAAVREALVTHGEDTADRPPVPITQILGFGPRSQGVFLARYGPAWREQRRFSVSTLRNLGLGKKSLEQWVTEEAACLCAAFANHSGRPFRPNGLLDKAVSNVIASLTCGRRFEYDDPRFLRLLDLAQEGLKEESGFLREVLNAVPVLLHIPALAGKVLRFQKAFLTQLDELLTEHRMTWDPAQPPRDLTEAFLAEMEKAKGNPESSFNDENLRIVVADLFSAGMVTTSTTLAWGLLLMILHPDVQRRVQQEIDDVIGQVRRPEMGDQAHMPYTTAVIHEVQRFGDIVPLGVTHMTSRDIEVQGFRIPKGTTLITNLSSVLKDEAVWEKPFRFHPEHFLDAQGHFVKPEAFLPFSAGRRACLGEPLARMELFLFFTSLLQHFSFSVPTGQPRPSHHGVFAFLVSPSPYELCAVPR

T3 sequence (P08684 whole entry): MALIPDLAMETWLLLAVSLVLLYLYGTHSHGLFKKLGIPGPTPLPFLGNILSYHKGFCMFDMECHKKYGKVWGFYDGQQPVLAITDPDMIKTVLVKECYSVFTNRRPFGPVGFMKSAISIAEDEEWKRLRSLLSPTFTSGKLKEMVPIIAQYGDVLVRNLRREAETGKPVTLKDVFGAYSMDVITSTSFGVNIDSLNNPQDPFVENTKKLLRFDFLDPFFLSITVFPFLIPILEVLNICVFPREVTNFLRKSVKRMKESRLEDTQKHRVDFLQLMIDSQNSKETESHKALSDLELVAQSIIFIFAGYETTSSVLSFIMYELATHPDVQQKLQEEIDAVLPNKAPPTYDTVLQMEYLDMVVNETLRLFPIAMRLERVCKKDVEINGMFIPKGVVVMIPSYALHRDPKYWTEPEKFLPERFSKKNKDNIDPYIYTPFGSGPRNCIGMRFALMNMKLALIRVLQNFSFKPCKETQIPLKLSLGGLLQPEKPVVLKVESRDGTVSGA
T1 sequence (P11712 whole entry): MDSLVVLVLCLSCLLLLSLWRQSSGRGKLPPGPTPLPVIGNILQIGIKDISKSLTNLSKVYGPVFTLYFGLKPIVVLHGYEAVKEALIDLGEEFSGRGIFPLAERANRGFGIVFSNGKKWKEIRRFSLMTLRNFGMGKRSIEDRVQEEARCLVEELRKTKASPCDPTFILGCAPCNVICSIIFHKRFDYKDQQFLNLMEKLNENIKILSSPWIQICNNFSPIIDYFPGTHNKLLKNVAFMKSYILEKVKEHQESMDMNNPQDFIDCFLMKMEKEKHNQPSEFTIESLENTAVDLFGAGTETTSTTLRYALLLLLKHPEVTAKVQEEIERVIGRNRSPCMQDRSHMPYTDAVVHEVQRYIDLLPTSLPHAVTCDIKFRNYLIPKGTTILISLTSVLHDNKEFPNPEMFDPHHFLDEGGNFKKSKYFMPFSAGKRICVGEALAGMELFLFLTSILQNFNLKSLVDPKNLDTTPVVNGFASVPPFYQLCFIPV

With `O=C(O)Cc1cn([C@H]2C[C@H]3CCC[C@@H](C2)N3[C@H]2C[C@@H]3CCC[C@@H](C3)C2)c2ccccc12` [Compound 7] as the compound, how does the IC50 (CYP2C9) read?
The IC50 was > 20 µM.

And the IC50 (CYP1A2)?
Its IC50 is > 20 µM.

What about the IC50 (CYP3A4) of the same compound?
Its IC50 is > 20 µM.

What about the IC50 (CYP2D6) of the same compound?
The IC50 was 14.6 µM.

Which results are given for `O=C(O)Cc1cn([C@H]2C[C@H]3CCC[C@@H](C2)N3C2CCCCCCCCC2)c2ccccc12` [Compound 23, 2-(1-((1R,3r,5S)-9-cyclodecyl-9-azabicyclo[3.3.1]nonan-3-yl)-1H-indol-3-yl)acetic acid]?
IC50 (CYP2C9): > 20 µM; IC50 (CYP1A2): > 20 µM; IC50 (CYP3A4): > 20 µM; IC50 (CYP2D6): 1.15 µM

Which results are given for `c1ccc2c(c1)ccn2[C@H]1C[C@H]2CCC[C@@H](C1)N2[C@H]1C[C@@H]2CCC[C@@H](C2)C1` [Compound 11]?
IC50 (CYP2C9): > 20 µM; IC50 (CYP1A2): > 20 µM; IC50 (CYP3A4): > 20 µM; IC50 (CYP2D6): > 20 µM
